Measurements taken from patent US5223485A, “Anaphylatoxin-receptor ligands” (Abbott Laboratories, priority 1991, dated 1993).
Square brackets hold non-standard residues; d marks the D form. Peptide text beside a SMILES is read from it. NEtPhe = CCN[C@@H](Cc1ccccc1)C(=O)O; Cha = N[C@@H](CC1CCCCC1)C(=O)O; dNMeA = CN[C@H](C)C(=O)O

Each compound was assayed against T1, C5a Receptor (Homo sapiens, UniProt P21730) (assay: Anaphylatoxin receptor binding Ki determination: inhibition of 125I-C5a binding to PMNL membrane fragments). Conditions: 0.03-1 nM 125I-C5a, 2.5-25 μg/mL purified PMNL membrane fragments, filtration; read-out: In vitro C5a Receptor Binding Potency Ki.
T1 construct: 2.5-25 μg/mL of purified PMNL membrane fragments; from tissue; host or cells: polymorphonuclear leukocyte (PMNL) membrane fragments
T1 sequence (P21730 1-350): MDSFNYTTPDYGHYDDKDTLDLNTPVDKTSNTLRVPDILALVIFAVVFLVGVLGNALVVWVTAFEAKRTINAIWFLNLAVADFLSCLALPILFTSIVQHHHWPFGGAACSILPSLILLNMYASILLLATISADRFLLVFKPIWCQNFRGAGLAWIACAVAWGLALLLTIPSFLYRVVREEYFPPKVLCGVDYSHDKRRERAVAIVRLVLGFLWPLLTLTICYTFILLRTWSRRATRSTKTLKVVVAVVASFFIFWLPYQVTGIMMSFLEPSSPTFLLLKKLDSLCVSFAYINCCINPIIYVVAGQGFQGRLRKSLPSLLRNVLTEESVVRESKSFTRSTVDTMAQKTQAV
Procedure: Specific inhibition of C5a binding activity of representative compounds of the present invention was measured using 0.03-1 nM ^125 I-C5a with 2.5-25 μg/mL of purified PMNL membrane fragments (Borregaard, N.; Heiple, J. M.; Simons, E. R.; and Clark, R. A. J. Cell. Biol. 1983, 97, 52-61.). Free and membrane-bound ligand were separated by filtration.

SMILES	Ki
C[C@H](NC(=O)[C@H](CCCCN)NC(=O)[C@@H](N)Cc1ccccc1)C(=O)N[C@@H](CC1CCCCC1)C(=O)N[C@@H](CC1CCCCC1)C(=O)N[C@H](C(=O)N[C@H](C)C(=O)N[C@@H](CCCNC(=N)N)C(=O)O)[C@@H](C)O [Example 131, H-Phenylalanyl-Lysyl-Alanyl-{(2S)-2-Amino-3-cyclohexylpropanoyl}-{(2S)-2-Amino-3-cyclohexylpropanoyl}-Threonyl-DAlanyl-Arginyl-OH] (H-FKA[Cha][Cha]T[dA]R-OH)	170 nM
CC(C)C[C@H](NC(=O)[C@H](C)NC(=O)[C@H](CC1CCCCC1)NC(=O)[C@H](C)NC(=O)[C@H](CCCCN)NC(=O)[C@@H](N)Cc1ccccc1)C(=O)N(C)[C@H](C)C(=O)N[C@@H](CCCNC(=N)N)C(=O)O [Example 296, H-Phenylalanyl-Lysyl-Alanyl-{(2S)-2-Amino-3-cyclohexylpropanoyl}-Alanyl-Leucyl-(N-Methyl)DAlanyl-Arginyl-OH] (H-FKA[Cha]AL[dNMeA]R-OH)	12 nM
CC(C)C[C@H](NC(=O)[C@H](CC1CCCCC1)NC(=O)[C@H](CC1CCCCC1)NC(=O)[C@H](C)NC(=O)[C@H](CCCCN)NC(=O)[C@@H](N)Cc1ccccc1)C(=O)N[C@H](C)C(=O)NCC(=O)N[C@@H](CCCNC(=N)N)C(=O)O [Example 213, H-Phenylalanyl-Lysyl-Alanyl-{(2S)-2-Amino-3-cyclohexylpropanoyl}-{(2S)-2-Amino-3-cyclohexylpropanoyl)-Leucyl-DAlanyl-Glycyl-Arginyl-OH] (H-FKA[Cha][Cha]L[dA]GR-OH)	330 nM
CC[C@H](C)[C@H](N)C(=O)N[C@@H](CO)C(=O)N[C@@H](Cc1ccccc1)C(=O)N[C@@H](CCCCN)C(=O)N[C@@H](CC(=O)O)C(=O)N[C@@H](CC1CCCCC1)C(=O)N[C@@H](CC1CCCCC1)C(=O)N[C@@H](CC(C)C)C(=O)N[C@H](C)C(=O)N[C@@H](CCCNC(=N)N)C(=O)O [Example 111, H-Isoleucyl-Seryl-Phenylalanyl-Lysyl-Aspartyl-{(2S)-2-Amino-3-cyclohexylpropanoyl}-{(2S)-2-Amino-3-cyclohexylpropanoyl}-Leucyl-DAlanyl-Arginyl-OH] (H-ISFKD[Cha][Cha]L[dA]R-OH)	650 nM
CCN[C@@H](Cc1ccccc1)C(=O)N[C@@H](CCCCN)C(=O)N[C@@H](C)C(=O)N[C@@H](CC1CCCCC1)C(=O)N[C@@H](C)C(=O)N[C@@H](CC(C)C)C(=O)N(C)[C@H](C)C(=O)N[C@@H](CCCNC(=N)N)C(=O)O [Example 402, (N-Ethyl)Phenylalanyl-Lysyl-Alanyl-{(2S)-2-Amino-3-cyclohexylpropanoyl}-Alanyl-Leucyl-(N-Methyl)DAlanyl-Arginyl-OH] (H-[NEtPhe]KA[Cha]AL[dNMeA]R-OH)	11 nM
CCCC(C(=O)N[C@H](C)C(=O)N[C@@H](CCCNC(=N)N)C(=O)O)N1CCCC[C@H](NC(=O)[C@H](CC2CCCCC2)NC(=O)[C@H](Cc2c[nH]cn2)NC(=O)[C@H](CCCCN)NC(=O)[C@@H](N)Cc2ccccc2)C1=O (stereo partly drawn) [Example 150, H-Phenylalanyl-Lysyl-Histidyl-{(2S)-2-Amino-3-cyclohexylpropanoyl}-{(2'R/S,3S)-3-Amino-2-oxo-1-azepine-2'-pentanoyl}-DAlanyl-Arginyl-OH]	110 nM
CC(C)C[C@H](NC(=O)[C@H](CC1CCCCC1)NC(=O)[C@H](CC1CCCCC1)NC(=O)[C@H](C)NC(=O)[C@H](CCCCN)NC(=O)[C@@H](N)Cc1ccccc1)C(=O)N[C@@H](C)C(=O)N[C@@H](CCCNC(=N)N)C(=O)O [Example 188, H-Phenylalanyl-Lysyl-Alanyl-{(2S)-2-Amino-3-cyclohexylpropanoyl}-{(2S)-2-Amino-3-cyclohexylpropanoyl}-Leucyl-Alanyl-Arginyl-OH] (H-FKA[Cha][Cha]LAR-OH)	210 nM
